What all share (experiment): Test B flooded paddy test plant response
What all share (assay type): in vivo

Assay [1] relates to ducksalad (Heteranthera limosa). The method, boiled down:
(§1)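 Step one: raise plants to 2 leaves. Step two: flood pots 3 cm over the soil and apply compound into the water, keeping this depth. Step three: after 13–15 greenhouse days, score visually versus controls, 0–100, where 100 means complete control.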

Assay [2] deals with umbrella sedge (Cyperus difformis). The method in brief: as §1
Assay [3] relates to barnyardgrass (Echinochloa crus-galli). The method in brief: as §1
Where [4] appears, read: Flood (flooded paddy test), 62 g ai/ha, scale 0 to 100, 0 no effect, 100 complete control.
Where [5] appears, read: Flood (flooded paddy test), 125 g ai/ha, scale 0 to 100, 0 no effect, 100 complete control.
Setting [6] is: Flood (flooded paddy test), 250 g ai/ha, scale 0 to 100, 0 no effect, 100 complete control.
The mark [7] stands for this setting: Flood, 31 g ai/ha, scale 0 to 100.

Turning to “5-[3-(4-chlorophenyl)-5-methyl-1H-pyrazol-1-yl]-1,6-dihydro-1-methyl-6-oxo-4-pyridazinyl-1-methylethyl carbonate [Compound 7]”, the “Plant response rating, Ducksalad” value in assay [1] (setting [4]) is given as 0; in assay [1] (setting [5]), 20; in assay [1] (setting [6]) it was 40; in assay [1] (setting [7]) it was 0. Besides, the “Plant response rating, Sedge, Umbrella” value in assay [2] (setting [4]) is recorded as 80; in assay [2] (setting [5]) it was 80; in assay [2] (setting [6]) it was 80; in assay [2] (setting [7]) it was 70. The “Plant response rating, Barnyardgrass” value in assay [3] (setting [4]) was determined as 45; in assay [3] (setting [5]) it was 65; in assay [3] (setting [6]), 85; in assay [3] (setting [7]) it was 20.
With `Cc1cc(-c2ccc(Br)cc2)nn1-c1c(OC(=O)C2CC2)cnn(C)c1=O` [Compound 5], the “Plant response rating, Ducksalad” value in assay [1] (setting [4]) was 40; in assay [1] (setting [5]), 50; in assay [1] (setting [6]), 65; in assay [1] (setting [7]), 30. The “Plant response rating, Sedge, Umbrella” value in assay [2] (setting [4]) was determined as 70; in assay [2] (setting [5]), 80; in assay [2] (setting [6]) it was 80; in assay [2] (setting [7]), 70. Also, the “Plant response rating, Barnyardgrass” value in assay [3] (setting [4]) amounted to 50; in assay [3] (setting [5]) it was 70; in assay [3] (setting [6]), 90; in assay [3] (setting [7]), 20.
For `CCc1cc(-c2ccc(C(F)(F)F)cc2)nn1-c1c(OC(=O)OC(C)C)cnn(C)c1=O` [Compound 12], the “Plant response rating, Ducksalad” value stood at 0 in assay [1] (setting [4]), 40 in assay [1] (setting [5]), 50 in assay [1] (setting [6]) and 0 in assay [1] (setting [7]). Also, the “Plant response rating, Sedge, Umbrella” value stood at 40 in assay [2] (setting [4]), 60 in assay [2] (setting [5]), 60 in assay [2] (setting [6]) and 0 in assay [2] (setting [7]). The “Plant response rating, Barnyardgrass” value in assay [3] (setting [4]) came to 30; in assay [3] (setting [5]), 60; in assay [3] (setting [6]), 80; in assay [3] (setting [7]), 0.
For the compound `CCc1cc(-c2ccc(C(F)(F)F)cc2)nn1-c1c(O)c(C)nn(C)c1=O` [Compound 16], the “Plant response rating, Ducksalad” value in assay [1] (setting [4]), in assay [1] (setting [5]), in assay [1] (setting [6]) and in assay [1] (setting [7]) was 0 throughout. The “Plant response rating, Sedge, Umbrella” value is reported as 30 in assay [2] (setting [4]), 30 in assay [2] (setting [5]), 45 in assay [2] (setting [6]) and 0 in assay [2] (setting [7]). The “Plant response rating, Barnyardgrass” value in assay [3] (setting [4]) was 20; in assay [3] (setting [5]), 40; in assay [3] (setting [6]) it was 60; in assay [3] (setting [7]), 15.
As for `Cc1cc(-c2ccc(C(F)(F)F)cc2)nn1-c1c(O)c(C(C)C)nn(C)c1=O` [Compound 27], the “Plant response rating, Ducksalad” value came out at 40 in assay [1] (setting [4]), 60 in assay [1] (setting [5]), 75 in assay [1] (setting [6]) and 0 in assay [1] (setting [7]). For the same compound, the “Plant response rating, Sedge, Umbrella” value in assay [2] (setting [4]) came out at 20; in assay [2] (setting [5]), 30; in assay [2] (setting [6]), 65; in assay [2] (setting [7]) it was 20. Further, the “Plant response rating, Barnyardgrass” value in assay [3] (setting [4]) stood at 0; in assay [3] (setting [5]), 0; in assay [3] (setting [6]), 30; in assay [3] (setting [7]) it was 0.
Regarding `Cc1cc(-c2ccc(Cl)cc2)nn1-c1c(OC(=O)c2ccccc2Cl)cnn(C)c1=O` [Compound 38], the “Plant response rating, Ducksalad” value in assay [1] (setting [5]) amounted to 30; in assay [1] (setting [6]), 40; in assay [1] (setting [7]), 40. Further, the results for the “Plant response rating, Sedge, Umbrella” value in assay [2] (setting [5]), in assay [2] (setting [6]) and in assay [2] (setting [7]) were 70, 70 and 20, respectively. The “Plant response rating, Barnyardgrass” value in assay [3] (setting [4]) is 95; in assay [3] (setting [5]), 95; in assay [3] (setting [6]) it was 95; in assay [3] (setting [7]), 20.
On to `Cn1ncc(O)c(-n2nc(-c3ccc(Cl)cc3)cc2C2CC2)c1=O` [Compound 45], for which the “Plant response rating, Ducksalad” value is 0 in assay [1] (setting [4]), 0 in assay [1] (setting [5]), 75 in assay [1] (setting [6]) and 0 in assay [1] (setting [7]). Further, the “Plant response rating, Sedge, Umbrella” value amounted to 0 in assay [2] (setting [4]), 0 in assay [2] (setting [5]), 65 in assay [2] (setting [6]) and 0 in assay [2] (setting [7]). For the same compound, the “Plant response rating, Barnyardgrass” value turned out to be 20 in assay [3] (setting [4]), 60 in assay [3] (setting [5]), 65 in assay [3] (setting [6]) and 20 in assay [3] (setting [7]).
In the case of `Cc1ccc(-c2ccc(Cl)cc2)cc1-c1c(O)cnn(C)c1=O` [Compound 46], the “Plant response rating, Ducksalad” value in assay [1] (setting [4]) was found to be 30; in assay [1] (setting [5]), 45; in assay [1] (setting [6]), 85. The “Plant response rating, Sedge, Umbrella” value in assay [2] (setting [4]) is recorded as 50; in assay [2] (setting [5]) it was 60; in assay [2] (setting [6]), 75; in assay [2] (setting [7]), 40. In addition, the “Plant response rating, Barnyardgrass” value in assay [3] (setting [4]) stood at 0; in assay [3] (setting [5]) it was 30; in assay [3] (setting [6]) it was 40; in assay [3] (setting [7]), 0.
`Cc1cc(-c2ccc(Cl)cc2)nn1-c1c(OS(=O)(=O)C(C)C)cnn(C)c1=O` [Compound 50]: the “Plant response rating, Ducksalad” value in assay [1] (setting [4]), in assay [1] (setting [5]), in assay [1] (setting [6]) and in assay [1] (setting [7]) was 0 each time. For the same compound, the “Plant response rating, Sedge, Umbrella” value in assay [2] (setting [4]), in assay [2] (setting [5]), in assay [2] (setting [6]) and in assay [2] (setting [7]) was 0 throughout. The “Plant response rating, Barnyardgrass” value in assay [3] (setting [4]), in assay [3] (setting [5]), in assay [3] (setting [6]) and in assay [3] (setting [7]) was 0 in each case.
As to `CCCC(=O)Oc1cnn(C)c(=O)c1-n1nc(-c2ccc(Cl)cc2)cc1C` [Compound 56], the “Plant response rating, Ducksalad” value worked out at 0 in assay [1] (setting [4]), 40 in assay [1] (setting [5]), 75 in assay [1] (setting [6]) and 0 in assay [1] (setting [7]). In addition, the “Plant response rating, Sedge, Umbrella” value in assay [2] (setting [4]) was 75; in assay [2] (setting [5]), 85; in assay [2] (setting [6]) it was 85; in assay [2] (setting [7]), 70. Besides, the “Plant response rating, Barnyardgrass” value in assay [3] (setting [4]) was 0; in assay [3] (setting [5]), 20; in assay [3] (setting [6]) it was 60; in assay [3] (setting [7]), 0.
Take `Cc1nn(C)c(=O)c(-n2nc(-c3ccc(Cl)cc3)cc2Cl)c1O` [Compound 59]: the “Plant response rating, Ducksalad” value in assay [1] (setting [4]) is recorded as 0; in assay [1] (setting [6]) it was 20. The “Plant response rating, Sedge, Umbrella” value in assay [2] (setting [4]) is 0; in assay [2] (setting [6]), 30. For the same compound, the “Plant response rating, Barnyardgrass” value was found to be 0 in assay [3] (setting [4]) and 50 in assay [3] (setting [6]).
For the compound `CCc1cc(-c2ccc(C(F)(F)F)cc2)nn1-c1c(O)c(OC)nn(C)c1=O` [Compound 66], the “Plant response rating, Ducksalad” value in assay [1] (setting [4]), in assay [1] (setting [5]), in assay [1] (setting [6]) and in assay [1] (setting [7]) was 0 throughout. Moreover, the “Plant response rating, Sedge, Umbrella” value in assay [2] (setting [4]), in assay [2] (setting [5]), in assay [2] (setting [6]) and in assay [2] (setting [7]) was 0 throughout. Also, the “Plant response rating, Barnyardgrass” value in assay [3] (setting [4]) amounted to 0; in assay [3] (setting [5]) it was 20; in assay [3] (setting [6]), 20; in assay [3] (setting [7]) it was 0.
As for `CCCc1cc(-c2ccc(C(F)(F)F)cc2)nn1-c1c(O)cnn(C)c1=O` [Compound 72], the “Plant response rating, Ducksalad” value in assay [1] (setting [4]) is listed as 0; in assay [1] (setting [5]), 0; in assay [1] (setting [6]) it was 40; in assay [1] (setting [7]), 0. Moreover, the “Plant response rating, Sedge, Umbrella” value in assay [2] (setting [4]) is recorded as 0; in assay [2] (setting [5]), 60; in assay [2] (setting [6]), 65; in assay [2] (setting [7]), 0. The “Plant response rating, Barnyardgrass” value in assay [3] (setting [4]) is on record as 20; in assay [3] (setting [5]), 40; in assay [3] (setting [6]), 70; in assay [3] (setting [7]), 0.
